# Experimental data from PubChem BioAssay (NCI).
#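 Test compounds were applied to cells in 96-well plates for 48 hours at 5 doses. Definition used: TGI = concentration required for complete inhibition of growth.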
# Key:
# Assay in all cases: NCI anticancer screen, dose series, 48 h
# OVCAR-3 ovarian = test system: OVCAR-3 ovarian
# T-47D breast = test system: T-47D breast
# M14 melanoma = test system: M14 melanoma
# MDA-N = test system: MDA-N
# UO-31 renal = test system: UO-31 renal
# HCT-15 colon = test system: HCT-15 colon
# DU-145 prostate = test system: DU-145 prostate
# OVCAR-5 ovarian = test system: OVCAR-5 ovarian
# A498 renal = test system: A498 renal
# HCC-2998 colon = test system: HCC-2998 colon
# MDA-MB-435 = test system: MDA-MB-435
# OVCAR-4 ovarian = test system: OVCAR-4 ovarian
# CCRF-CEM leukemia = test system: CCRF-CEM leukemia
# SN12C renal = test system: SN12C renal
# COLO 205 colon = test system: COLO 205 colon
# BT-549 breast = test system: BT-549 breast
# IGROV1 ovarian = test system: IGROV1 ovarian
# SW-620 colon = test system: SW-620 colon
# ACHN renal = test system: ACHN renal
# HT29 colon = test system: HT29 colon
# EKVX NSCLC = test system: EKVX NSCLC
# NCI-H23 lung = test system: NCI-H23 lung
# SK-MEL-28 melanoma = test system: SK-MEL-28 melanoma
# SF-268 CNS = test system: SF-268 CNS
# UACC-62 melanoma = test system: UACC-62 melanoma
# MDA-MB-231 breast = test system: MDA-MB-231 breast
# U251 CNS = test system: U251 CNS
# SNB-19 CNS = test system: SNB-19 CNS
# RPMI-8226 leukemia = test system: RPMI-8226 leukemia
# NCI-H522 lung = test system: NCI-H522 lung
# A549 NSCLC = test system: A549 NSCLC
# K-562 leukemia = test system: K-562 leukemia
# TK-10 renal = test system: TK-10 renal
# PC-3 prostate = test system: PC-3 prostate
# SF-295 CNS = test system: SF-295 CNS
# 786-0 renal = test system: 786-0 renal
# SK-OV-3 ovarian = test system: SK-OV-3 ovarian
# CAKI-1 renal = test system: CAKI-1 renal
# RXF 393 renal = test system: RXF 393 renal
# OVCAR-8 ovarian = test system: OVCAR-8 ovarian
# UACC-257 melanoma = test system: UACC-257 melanoma
# NCI-H460 lung = test system: NCI-H460 lung
# MCF7 breast = test system: MCF7 breast
# KM12 colon = test system: KM12 colon
# MALME-3M melanoma = test system: MALME-3M melanoma
# SF-539 CNS = test system: SF-539 CNS
# NCI/ADR-RES ovarian = test system: NCI/ADR-RES ovarian
# NCI-H226 lung = test system: NCI-H226 lung
# SK-MEL-2 melanoma = test system: SK-MEL-2 melanoma
# LOX IMVI melanoma = test system: LOX IMVI melanoma
# SK-MEL-5 melanoma = test system: SK-MEL-5 melanoma
# HCT-116 colon = test system: HCT-116 colon
structure (smiles),measurement,setting,value
CCOc1cc(-c2nc3cc(F)ccc3s2)ccc1O,TGI,OVCAR-3 ovarian,35 µM
same,TGI,T-47D breast,28.1 µM
same,TGI,M14 melanoma,33.4 µM
same,TGI,MDA-N,31.7 µM
same,TGI,UO-31 renal,25.8 µM
same,TGI,HCT-15 colon,29 µM
same,TGI,DU-145 prostate,32.2 µM
same,TGI,OVCAR-5 ovarian,33.3 µM
same,TGI,A498 renal,26.2 µM
same,TGI,HCC-2998 colon,41.6 µM
same,TGI,MDA-MB-435,33.8 µM
same,TGI,OVCAR-4 ovarian,43.2 µM
same,TGI,CCRF-CEM leukemia,18 µM
same,TGI,SN12C renal,35.6 µM
same,TGI,COLO 205 colon,34.6 µM
same,TGI,BT-549 breast,30.2 µM
same,TGI,IGROV1 ovarian,26 µM
same,TGI,SW-620 colon,40.7 µM
same,TGI,ACHN renal,29.9 µM
same,TGI,HT29 colon,34.8 µM
same,TGI,EKVX NSCLC,24.4 µM
same,TGI,NCI-H23 lung,33.8 µM
same,TGI,SK-MEL-28 melanoma,43.1 µM
same,TGI,SF-268 CNS,31.2 µM
same,TGI,UACC-62 melanoma,31.6 µM
same,TGI,MDA-MB-231 breast,48.4 µM
same,TGI,U251 CNS,41.3 µM
same,TGI,SNB-19 CNS,30.7 µM
same,TGI,RPMI-8226 leukemia,29.6 µM
same,TGI,NCI-H522 lung,24.2 µM
same,TGI,A549 NSCLC,37 µM
same,TGI,K-562 leukemia,25.9 µM
same,TGI,TK-10 renal,34 µM
same,TGI,PC-3 prostate,28.7 µM
same,TGI,SF-295 CNS,35.2 µM
same,TGI,786-0 renal,29.6 µM
same,TGI,SK-OV-3 ovarian,33 µM
same,TGI,CAKI-1 renal,32.2 µM
same,TGI,RXF 393 renal,35.4 µM
same,TGI,OVCAR-8 ovarian,31.2 µM
same,TGI,UACC-257 melanoma,31 µM
same,TGI,NCI-H460 lung,34.9 µM
same,TGI,MCF7 breast,23 µM
same,TGI,KM12 colon,36 µM
same,TGI,MALME-3M melanoma,29.8 µM
same,TGI,SF-539 CNS,34.2 µM
same,TGI,NCI/ADR-RES ovarian,50.2 µM
same,TGI,NCI-H226 lung,34.2 µM
same,TGI,SK-MEL-2 melanoma,31.5 µM
same,TGI,LOX IMVI melanoma,33.4 µM
same,TGI,SK-MEL-5 melanoma,32.2 µM
same,TGI,HCT-116 colon,47.3 µM
